# Test results as given in patent publication US20240082238A1, “COMPOSITIONS AND METHODS FOR TREATING CANCER” (UNIVERSITY OF IOWA RESEARCH FOUNDATION, priority 2021, published 2024).
# Where two headings read alike, the source gives them in different places.
# How the values were obtained:
# Hec50co cells [1] = experiment: Intracellular accumulation of PTX-OG (flow cytometry, confocal microscopy); type: cell-based, human; settings: 400 nM PTX-OG alone, 2 h
# Experimental: Intracellular accumulation of PTX using flow cytometer. To evaluate PTX cellular accumulation in the presence or absence of CIP2b, Hec50co cells were seeded at a density of 200,000 cells per well in 6-well plates in complete medium and incubated for 24 h. Afterward, the medium was removed, and a DMSO-based solution (0.1 mg/mL) of fluorescently labeled PTX (PTX-OG) was added at 400 nM per well, and the volume was completed to 2 mL with the medium. Also, CIP2b (in DMSO) was added at 4 or 40 μM, either alone or in combination with PTX-OG. After 2 h, the medium was removed, the cells were washed thoroughly with DPBS, trypsinized, and collected by centrifugation (230 xg, 5 min). Finally, cells were analyzed by flow cytometry (FACScan).
# Intracellular accumulation of PTX using confocal microscopy. Intracellular accumulation of PTX co-delivered with CIP2b was also studied qualitatively in Hec50co cells using confocal microscopy. […]
# In vitro activity of CIP2b NPs. […] An equivalent quantity of blank NPs was also tested to account for the effect of the PLGA NPs alone without CIP2b. […] An equivalent quantity of blank NPs was also added, either alone or with PTX-OG. Samples were then analyzed using a flow cytometer, as described above.
# Hec50co cells [2] = experiment: Cytotoxicity assay (MTS), Hec50co cells; type: cell-based, human; settings: 72 h; for IC50: Homo sapiens
# Experimental: Cytotoxicity assay. Hec50co cells were seeded at 1500 cells per well in 96-well plates for 24 h in a complete medium. Later, the medium was removed and PTX, CIP2b, or CIP (all dissolved in DMSO and diluted in complete medium) were added to cells as either monotherapies or in combinations, and the plates were incubated for 72 hours. Then, the complete medium was removed and MTS reagent in the complete medium was added to wells, and the plates were incubated for 1-4 hours according to the manufacturer's protocol. Finally, the absorbance was recorded at 490 nm using a Spectra Max plus 384 Microplate Spectrophotometer (Molecular Devices, Sunnyvale, CA). Percentage cell viability was expressed as the average absorbance of the test group relative to that of the control group (untreated cells). The concentration that inhibits proliferation of 50% of cells compared to control (IC50) was calculated using GraphPad Prism (La Jolla, CA). Synergism was detected following the Chou-Talalay method (CI<1 indicates synergism) (Chou T C. Cancer research. 2010; 70(2):440-6, doi: 10.1158/0008-5472.CAN-09-1947) using CompuSyn software (Ver. 1.0). […]
smiles,measurement,setting,value
"CC(=O)O[C@H]1C(=O)[C@@]2(C)[C@H]([C@H](OC(=O)c3ccccc3)[C@]3(O)C[C@H](OC(=O)[C@H](O)[C@@H](NC(=O)c4ccccc4)c4ccccc4)C(C)=C1C3(C)C)[C@]1(OC(C)=O)CO[C@@H]1C[C@@H]2O [PTX, paclitaxel]",cellular uptake of PTX-OG,Hec50co cells [1],readily taken up
same,survival,Hec50co cells [2]; 0.1 nM PTX alone,100%
same,cell survival,Hec50co cells [2]; 5 nM PTX as single compound,about 80%
same,IC50,"Hec50co cells [2]; 10 μM CIP2b added, read-out: IC50 value of PTX",3.1 nM
same,IC50,"Hec50co cells [2]; 25 μM CIP2b added, read-out: IC50 value of PTX",2.15 nM
same,IC50,Hec50co cells [2]; PTX alone,8.77 nM
